The values that follow come from US20240116896A1 (ATAI Life Sciences AG, priority 2022, published 2024).

As a reminder, the EC50 is the concentration needed to bring the measured effect to its halfway point. Read a high EC50 as weaker potency.

For one test, the target named is 5-HT2A (Homo sapiens, UniProt P28223). As to the kind of experiment: IPOne (IP1 HTRF) assay, CHO-K1 cells expressing human 5-HT2A. Type of test: cell-based. The arrangement: expressed in transfected cells; host or cells: CHO-K1. The conditions noted are these: for activation at 0.3 µM / activation at 30 µM: CHO-K1, percentage of reference agonist α-Me-5-HT at its EC100; for EC50: CHO-K1, human 5-HT2A. The protocol:
(§1) IPOne assays were performed using stably-transfected cell lines (CHO-K1) expressing human 5-HT2A or 5-HT2B receptors. Upon activation of these receptors, Gq-mediated myo-Inositol 1 phosphate (IP1) production is detected by a Homogeneous Time-Resolved Fluorescence (HTRF) competitive immunoassay, whereby an IP1 analog coupled to a fluorophore (acceptor) competes with endogenous IP1 for binding to a labeled anti-IP1 antibody (donor). The resulting signal is inversely proportional to the concentration of IP1 in the sample. Cells were incubated with an IP1 inhibitor (to prevent degradation and allow detection) and either reference compound or test compound. α-Me-5-HT was used as the assay reference agonist. Activation of 5-HT2A or 5-HT2B receptors was measured via accumulation of IP1 detected by HTRF. Agonist activity of test compounds was expressed as a percentage of the activity of the reference agonist at its EC100 concentration.

The target of a further test is 5-HT2B (Homo sapiens, UniProt P41595). Briefly: IPOne (IP1 HTRF) assay, CHO-K1 cells expressing human 5-HT2B. Type of test: cell-based. The arrangement: expressed in transfected cells; host or cells: CHO-K1. The conditions noted are these: for activation at 0.3 µM / activation at 30 µM: CHO-K1, percentage of reference agonist α-Me-5-HT at its EC100; for EC50: CHO-K1, human 5-HT2B. The protocol:
as §1
On the technique in general: Time-resolved FRET reads energy transfer from a long-lived donor to a nearby acceptor.

Sequence of 5-HT2B (P41595 whole entry): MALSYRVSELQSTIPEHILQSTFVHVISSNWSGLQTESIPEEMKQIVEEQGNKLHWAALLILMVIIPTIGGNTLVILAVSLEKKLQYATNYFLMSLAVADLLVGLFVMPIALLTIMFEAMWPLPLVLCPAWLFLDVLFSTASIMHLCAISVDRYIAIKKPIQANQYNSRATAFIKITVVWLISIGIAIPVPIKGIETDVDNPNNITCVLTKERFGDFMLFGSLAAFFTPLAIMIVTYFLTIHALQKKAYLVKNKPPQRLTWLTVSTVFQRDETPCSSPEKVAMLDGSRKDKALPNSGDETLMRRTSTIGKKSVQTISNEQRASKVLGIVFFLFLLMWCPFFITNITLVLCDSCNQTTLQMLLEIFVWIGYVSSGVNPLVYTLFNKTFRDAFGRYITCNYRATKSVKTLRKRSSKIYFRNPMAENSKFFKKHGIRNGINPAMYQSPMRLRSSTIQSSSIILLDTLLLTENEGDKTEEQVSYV
Sequence of 5-HT2A (P28223 whole entry): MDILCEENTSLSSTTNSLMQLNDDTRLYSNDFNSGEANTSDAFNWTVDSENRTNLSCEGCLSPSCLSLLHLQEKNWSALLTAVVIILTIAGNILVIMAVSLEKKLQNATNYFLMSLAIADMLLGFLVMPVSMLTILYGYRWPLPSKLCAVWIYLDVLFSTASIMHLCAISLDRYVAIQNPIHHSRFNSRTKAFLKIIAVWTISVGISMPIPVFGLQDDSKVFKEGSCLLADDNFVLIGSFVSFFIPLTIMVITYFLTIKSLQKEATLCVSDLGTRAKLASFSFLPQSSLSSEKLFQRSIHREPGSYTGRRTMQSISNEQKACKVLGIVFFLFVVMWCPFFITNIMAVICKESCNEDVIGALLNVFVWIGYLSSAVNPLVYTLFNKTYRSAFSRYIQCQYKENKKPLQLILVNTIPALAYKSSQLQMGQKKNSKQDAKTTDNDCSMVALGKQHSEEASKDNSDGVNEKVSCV

Consider `C[C@@H](O)[C@@H]1CCCN1CCc1c[nH]c2ccccc12` [Compound 75], for which, at 5-HT2A, the activation at 0.3 µM turned out to be 23.4% and the activation at 30 µM worked out at 87.3%. Besides, at 5-HT2B, the activation at 0.3 µM was determined as 5.88% and the activation at 30 µM came to 80.2%.

As to `COc1ccc2[nH]cc(CCN3CCCC3CO)c2c1` (centres unmarked) [Compound 30], on 5-HT2A, the activation at 0.3 µM was 97.8% and the activation at 30 µM was 100%. At 5-HT2B, the activation at 0.3 µM is 89.4% and the activation at 30 µM was determined as 98.8%.

Consider `COc1ccc2[nH]c(Br)c(CCN3CCCC3CO)c2c1` (centres unmarked) [Compound 72, (1-(2-(2-bromo-5-methoxy-1H-indol-3-yl)ethyl)pyrrolidin-2-yl)methanol], for which, at 5-HT2A, the activation at 0.3 µM was 5.63% and the activation at 30 µM is 37.6%. Also, at 5-HT2B, the activation at 0.3 µM was 13.5% and the activation at 30 µM was found to be 41.7%.

As to `COc1cccc2[nH]cc(CCN3CCC[C@H]3CO)c12` [Compound 48, (S)-(1-(2-(4-methoxy-1H-indol-3-yl)ethyl)pyrrolidin-2-yl)methanol], at 5-HT2A, a half-maximal effect (EC50) was put at 11.2 nM, the activation at 0.3 µM was 83.2% and the activation at 30 µM stood at 90.9%. In addition, on 5-HT2B, the EC50 turned out to be 22.2 nM, the activation at 0.3 µM came out at 62% and the activation at 30 µM was found to be 83.4%.

In the case of `OC[C@@H]1CCCN1CCc1c(Br)[nH]c2ccccc12` [Compound 57, (S)-(1-(2-(2-bromo-1H-indol-3-yl)ethyl)pyrrolidin-2-yl)methanol], on 5-HT2A, the activation at 0.3 µM amounted to 4.69% and the activation at 30 µM came to 30.9%. Moreover, on 5-HT2B, the activation at 0.3 µM was -1.03% and the activation at 30 µM was 73%.

In the case of `COc1ccc2[nH]cc(CCN3CCC[C@H]3CO)c2c1` [Compound 50], at 5-HT2A, a half-maximal effect (EC50) was put at 12.5 nM, the activation at 0.3 µM is 100% and the activation at 30 µM amounted to 103%. In addition, on 5-HT2B, the midpoint of the response, the EC50, lay at 8.8 nM; the activation at 0.3 µM was 101%; the activation at 30 µM was 101%.

Regarding `C[C@H](O)[C@@H]1CCCN1CCc1c[nH]c2ccccc12` [Compound 73, (S)-1-((S)-1-(2-(1H-indol-3-yl)ethyl)pyrrolidin-2-yl)ethan-1-ol], on 5-HT2A, the midpoint of the response, the EC50, lay at 557 nM; the activation at 0.3 µM is 61.9%; the activation at 30 µM is 101%. In addition, on 5-HT2B, the EC50 came out at 958 nM, the activation at 0.3 µM worked out at 61.2% and the activation at 30 µM is 104%.

Consider `OC1CCN(CCc2c[nH]c3ccccc23)C1` (centres unmarked) [Compound 7, 1-(2-(1H-indol-3-yl)ethyl)pyrrolidin-3-ol], for which, on 5-HT2A, the activation at 0.3 µM came out at 7.01% and the activation at 30 µM worked out at 42%. Besides, on 5-HT2B, the activation at 0.3 µM was found to be 5.71% and the activation at 30 µM stood at 28.7%.

On to `CC[C@@H](O)[C@@H]1CCCN1CCc1c[nH]c2ccccc12` [Compound 77, (R)-1-((S)-1-(2-(1H-indol-3-yl)ethyl)pyrrolidin-2-yl)propan-1-ol], for which, on 5-HT2A, the activation at 0.3 µM was 23.9% and the activation at 30 µM turned out to be 90.6%. Also, at 5-HT2B, the activation at 0.3 µM turned out to be 18.2% and the activation at 30 µM was determined as 86.7%.

Consider `OC[C@H]1CCCN1CCc1c[nH]c2ccccc12` [Compound 32, (R)-(1-(2-(1H-indol-3-yl)ethyl)pyrrolidin-2-yl)methanol], for which, at 5-HT2A, the activation at 0.3 µM came to 7.16% and the activation at 30 µM was 42.1%. For the same molecule, at 5-HT2B, the activation at 0.3 µM was 4.28% and the activation at 30 µM was 33.9%.

As for `COC(=O)[C@]1(C)CCCN1CCc1c[nH]c2ccccc12` [Compound 92, methyl (S)-1-(2-(1H-indol-3-yl)ethyl)-2-methylpyrrolidine-2-carboxylate], at 5-HT2A, the activation at 0.3 µM is -16.3% and the activation at 30 µM was -6.28%. In addition, at 5-HT2B, the activation at 0.3 µM was -2.23% and the activation at 30 µM was 15.4%.

For `CC(C)OC(=O)[C@@H]1CCCN1CCc1c[nH]c2ccccc12` [Compound 55, isopropyl (2-(1H-indol-3-yl)ethyl)-L-prolinate], at 5-HT2A, the EC50 is 358 nM, the activation at 0.3 µM stood at 68.1% and the activation at 30 µM was found to be 101%. In addition, at 5-HT2B, the EC50 was found to be 1040 nM, the activation at 0.3 µM is 37.7% and the activation at 30 µM turned out to be 102%.

For `CC(C)(O)[C@@H]1CCCN1CCc1c[nH]c2ccccc12` [Compound 74, 2-[(2S)-1-[2-(1H-indol-3-yl)ethyl]pyrrolidin-2-yl] propan-2-ol], at 5-HT2A, the EC50 is 247 nM, the activation at 0.3 µM stood at 80.2% and the activation at 30 µM is 102%. Further, at 5-HT2B, a half-maximal response (EC50) required 526 nM, the activation at 0.3 µM stood at 63% and the activation at 30 µM is 100%.

For the molecule `OCC1CCCN1CCc1c[nH]c2cccc(O)c12` (centres unmarked) [Compound 29, 3-(2-(2-(hydroxymethyl)pyrrolidin-1-yl)ethyl)-1H-indol-4-ol], at 5-HT2A, the activation at 0.3 µM was determined as 99.4% and the activation at 30 µM is 99.2%. On 5-HT2B, the activation at 0.3 µM was 90.8% and the activation at 30 µM was determined as 96.4%.

For the molecule `COC(=O)[C@H]1CCCN1CCc1c[nH]c2ccccc12` [Compound 34, methyl (2-(1H-indol-3-yl)ethyl)-D-prolinate], on 5-HT2A, the activation at 0.3 µM came out at 4.6% and the activation at 30 µM came to 29.9%. At 5-HT2B, the activation at 0.3 µM amounted to 1.34% and the activation at 30 µM amounted to 35.1%.

For `OC[C@@H]1CCCN1CCc1c[nH]c2ccccc12` [Compound 31, (S)-(1-(2-(1H-indol-3-yl)ethyl)pyrrolidin-2-yl)methanol], on 5-HT2A, the EC50 was 62.1 nM, the activation at 0.3 µM amounted to 76.5% and the activation at 30 µM came out at 99.5%. On 5-HT2B, it took 126 nM to reach a half-maximal effect (EC50), the activation at 0.3 µM came to 54.6% and the activation at 30 µM came out at 97%.

As to `OCC1CCCN1CCc1c(Br)[nH]c2ccc(F)cc12` (centres unmarked) [Compound 69, (1-(2-(2-bromo-5-fluoro-1H-indol-3-yl)ethyl)pyrrolidin-2-yl)methanol], the activation at 0.3 µM on 5-HT2A was determined as 15.1%; at 5-HT2B, 27.6%. For the same molecule, the values for the activation at 30 µM on 5-HT2A and at 5-HT2B were 83.8% and 90.5%, respectively.

Consider `CCOC(=O)[C@@H]1CCCN1CCc1c[nH]c2ccccc12` [Compound 52, ethyl (2-(1H-indol-3-yl)ethyl)-L-prolinate], for which, at 5-HT2A, a half-maximal response (EC50) required 888 nM, the activation at 0.3 µM is 24% and the activation at 30 µM came out at 101%. In addition, on 5-HT2B, the EC50 stood at 2560 nM, the activation at 0.3 µM came out at 25.4% and the activation at 30 µM came out at 99.2%.

For the molecule `COC(=O)[C@@H]1CCCN1CCc1c[nH]c2ncccc12` [Compound 94, methyl (2-(1H-pyrrolo[2,3-b]pyridin-3-yl)ethyl)-L-prolinate], at 5-HT2A, the activation at 0.3 µM stood at 0.14% and the activation at 30 µM turned out to be 54.3%. For the same molecule, at 5-HT2B, the activation at 0.3 µM was -0.22% and the activation at 30 µM turned out to be 2.48%.

With `OC[C@H]1CCN1CCc1c[nH]c2ccccc12` [Compound 53, (R)-(1-(2-(1H-indol-3-yl)ethyl)azetidin-2-yl)methanol], on 5-HT2A, the activation at 0.3 µM came out at 3.07% and the activation at 30 µM amounted to 70.7%. Besides, on 5-HT2B, the activation at 0.3 µM came out at 16.3% and the activation at 30 µM is 74.7%.

Turning to `OCC1CCCN1CCc1c(Cl)[nH]c2ccc(F)cc12` (centres unmarked) [Compound 70, (1-(2-(2-chloro-5-fluoro-1H-indol-3-yl)ethyl)pyrrolidin-2-yl)methanol], at 5-HT2A, the activation at 0.3 µM stood at 61% and the activation at 30 µM was 97.7%. On 5-HT2B, the activation at 0.3 µM was found to be 55.1% and the activation at 30 µM turned out to be 99.8%.

As to `COC(=O)[C@@H]1CCCN1CCc1c[nH]c2ccccc12` [Compound 33, methyl (2-(1H-indol-3-yl)ethyl)-L-prolinate], on 5-HT2A, the EC50 amounted to 806 nM, the activation at 0.3 µM was determined as 44% and the activation at 30 µM was 94.4%. Further, on 5-HT2B, a half-maximal effect (EC50) was put at 456 nM, the activation at 0.3 µM came out at 33.9% and the activation at 30 µM amounted to 91.3%.

Turning to `CC[C@H](O)[C@@H]1CCCN1CCc1c[nH]c2ccccc12` [Compound 78, (S)-1-((S)-1-(2-(1H-indol-3-yl)ethyl)pyrrolidin-2-yl)propan-1-ol], at 5-HT2A, the activation at 0.3 µM amounted to 1.39% and the activation at 30 µM is 64.3%. Moreover, on 5-HT2B, the activation at 0.3 µM was 5.16% and the activation at 30 µM is 82.2%.

On to `OC[C@@H]1CCCN1CCc1c[nH]c2ncccc12` [Compound 95, (S)-(1-(2-(1H-pyrrolo[2,3-b]pyridin-3-yl)ethyl)pyrrolidin-2-yl)methanol], for which, on 5-HT2A, the activation at 0.3 µM is 0.81% and the activation at 30 µM was found to be 84.3%. Also, on 5-HT2B, the activation at 0.3 µM was determined as 1.09% and the activation at 30 µM is 9.66%.

Turning to `NCC1CCCN1CCc1c[nH]c2ccccc12` (centres unmarked) [Compound 22], on 5-HT2A, the activation at 0.3 µM was 10.2% and the activation at 30 µM came out at 99%. Also, on 5-HT2B, the activation at 0.3 µM was determined as 20% and the activation at 30 µM worked out at 99.6%.

`OC[C@@H]1CCCN1CCc1c[nH]c2ccc(O)cc12` [Compound 51]: at 5-HT2A, it took 45.6 nM to reach a half-maximal effect (EC50), the activation at 0.3 µM worked out at 99% and the activation at 30 µM was 101%. At 5-HT2B, the EC50 was 86.7 nM, the activation at 0.3 µM worked out at 85.7% and the activation at 30 µM turned out to be 99.1%.
